Experimental data: PMC8286840, “Identifying SARS-CoV-2 antiviral compounds by screening for small molecule inhibitors of Nsp3 papain-like protease” (Biochemical Journal, 2021)
Structures can show the parent of a compound that is named as a salt. Where two headings read alike, the source gives them in different places.

Legend:
[1] = biological target: T1, SARS-CoV-2 PLpro (nsp3 1564–1878) (Severe acute respiratory syndrome coronavirus 2, UniProt P0DTD1); test: biochemical; set-up: FRET-quenched peptide (Pro3) cleavage by PLpro, 10 min pre-incubation, slope over 20 min, normalised to no-compound control; details: high concentration screen, read-out: % of control remaining
[2] = biological target: T1, SARS-CoV-2 PLpro (nsp3 1564–1878); test: biochemical; set-up: FRET-quenched peptide (Pro3) cleavage by PLpro, 10 min pre-incubation, slope over 20 min, normalised to no-compound control; details: low concentration screen, read-out: % of control remaining

Molecule `C[C@@]12C[C@@]3(O)O[C@@H](O1)[C@]1(COC(=O)c4ccccc4)[C@H]3C[C@@]12O[C@@H]1O[C@H](COC(=O)c2ccccc2)[C@@H](O)[C@H](O)[C@H]1O` [Benzoylpaeoniflorin] has a remaining activity at 3.75 µM ([1]; Well no.=6394) of 98.2% and a remaining activity at 1.25 µM ([2]; Well no.=6394) of 101%.

In the case of `CCCCCCCC/C=C\CCCCCCC(O)C(=O)O` (stereo not drawn) [2OHOA], the remaining activity at 3.75 µM ([1]; Well no.=5534) is reported as 96.7% and the remaining activity at 1.25 µM ([2]; Well no.=5534) is reported as 97.8%.

Work on `CN1CC[C@@]2(C)c3cc(OC(=O)Nc4ccccc4)ccc3N(C)[C@@H]12` [Phenserine] yielded a remaining activity at 3.75 µM ([1]; Well no.=6093) of 89.8% and a remaining activity at 1.25 µM ([2]; Well no.=6093) of 90.2%.

In the case of `O=C(Oc1cc(S(=O)(=O)c2ccccc2)ccc1[N+](=O)[O-])c1ccc(Cl)cc1` [BTB06584], the remaining activity at 3.75 µM ([1]; Well no.=5965) is reported as 102% and the remaining activity at 1.25 µM ([2]; Well no.=5965) is reported as 102%.

Work on `CC1(C)CC(=O)c2c(C(F)(F)F)nn(-c3ccc(C(N)=O)c(N[C@H]4CC[C@H](O)CC4)c3)c2C1` [SNX-2112] yielded a remaining activity at 3.75 µM ([1]; Well no.=4635) of 95.7% and a remaining activity at 1.25 µM ([2]; Well no.=4635) of 99.3%.

`C[C@H]1[C@H](OC(=O)CCC(=O)O)O[C@@H]2O[C@@]3(C)CC[C@H]4[C@H](C)CC[C@@H]1[C@@]24OO3` [Artesunate] was tested, and the remaining activity at 3.75 µM ([1]; Well no.=2200) was 98.2%, the remaining activity at 3.75 µM ([1]; Well no.=3083) was 102% and the remaining activity at 1.25 µM ([2]; Well no.=2200) was 100%. The remaining activity at 1.25 µM ([2]; Well no.=3083) was 96%.

For `N#C[C@H](O[C@@H]1O[C@H](CO[C@@H]2O[C@H](CO)[C@@H](O)[C@H](O)[C@H]2O)[C@@H](O)[C@H](O)[C@H]1O)c1ccccc1` [Amygdalin], the remaining activity at 3.75 µM ([1]; Well no.=3472) was 102% and the remaining activity at 1.25 µM ([2]; Well no.=3472) was 100%.

In the case of `Cc1cc(=O)oc2cc(O)ccc12` [4-Methylumbelliferone], the remaining activity at 3.75 µM ([1]; Well no.=3342) is reported as 91.9% and the remaining activity at 1.25 µM ([2]; Well no.=3342) is reported as 94%.

Molecule `CC(C)(C(=O)O)c1ccc(C(O)CCCN2CCC(C(O)(c3ccccc3)c3ccccc3)CC2)cc1` (stereo not drawn) [Fexofenadine hydrochloride] has a remaining activity at 3.75 µM ([1]; Well no.=425) of 92.8% and a remaining activity at 1.25 µM ([2]; Well no.=425) of 93.1%.

Molecule `C=CCN1CCc2c(cc(O)c(O)c2Cl)C(c2ccccc2)C1` (stereo not drawn) [SKF-82958 (hydrobromide)] has a remaining activity at 3.75 µM ([1]; Well no.=7905) of 101% and a remaining activity at 1.25 µM ([2]; Well no.=7905) of 105%.

In the case of `Cc1nc(C)c(C)nc1C` [Tetramethylpyrazine], the remaining activity at 3.75 µM ([1]; Well no.=4143) is reported as 97.4% and the remaining activity at 1.25 µM ([2]; Well no.=4143) is reported as 98.6%.

In the case of `C[C@@]1(F)[C@H](O)[C@@H](CO)O[C@H]1n1ccc(=O)[nH]c1=O` [PSI-6206], the remaining activity at 3.75 µM ([1]; Well no.=7710) is reported as 87.5% and the remaining activity at 1.25 µM ([2]; Well no.=7710) is reported as 92.6%.

Work on `O=C(O)c1cc(/N=N/c2ccc(S(=O)(=O)Nc3ccccn3)cc2)ccc1O` [Sulfasalazine] yielded a remaining activity at 3.75 µM ([1]; Well no.=2293) of 97.5%, a remaining activity at 3.75 µM ([1]; Well no.=7312) of 101% and a remaining activity at 1.25 µM ([2]; Well no.=2293) of 96.4%. It also gave a remaining activity at 1.25 µM ([2]; Well no.=7312) of 101%.

`O=c1cc(-c2cccc3c2Sc2ccccc2S3)oc(N2CCOCC2)c1` [KU 55933 - 2-(4-Morpholinyl)-6-(1-thianthrenyl)-4H-pyran-4-one] gave a remaining activity at 3.75 µM ([1]; Well no.=2438) of 103% and a remaining activity at 1.25 µM ([2]; Well no.=2438) of 101%.

`COc1cc(Nc2ncc3ccn(-c4cccc(CCC#N)c4)c3n2)cc(OC)c1OC` [Keratinocyte Differentiation Inducer] was tested, and the remaining activity at 3.75 µM ([1]; Well no.=2379) was 103% and the remaining activity at 1.25 µM ([2]; Well no.=2379) was 101%.

`NCCC1CCCC(CCN)N1` (stereo not drawn) [MDL 26,630 trihydrochloride] was tested, and the remaining activity at 3.75 µM ([1]; Well no.=945) was 104% and the remaining activity at 1.25 µM ([2]; Well no.=945) was 103%.

Molecule `CC(C)[C@H]1CN[C@H](C(=O)O)[C@H]1CC(=O)O` [Dihydrokainic acid] has a remaining activity at 3.75 µM ([1]; Well no.=635) of 94% and a remaining activity at 1.25 µM ([2]; Well no.=635) of 93.4%.

`O=c1cc(CO)occ1O` [5-hydroxy-2-(hydroxymethyl)-4H-pyran-4-one] gave a remaining activity at 3.75 µM ([1]; Well no.=5437) of 113% and a remaining activity at 1.25 µM ([2]; Well no.=5437) of 109%.

With `CCCCCC(=O)/C=C/[C@H]1[C@H](O)CC(=O)[C@@H]1C/C=C\CCCC(=O)O` [15-keto-prostaglandin E2] the remaining activity at 3.75 µM ([1]; Well no.=4485) was 96.6% and the remaining activity at 1.25 µM ([2]; Well no.=4485) was 89%.

`Cc1cc2cc3c(C)cc(=O)oc3c(C)c2o1` [4,5',8-Trimethylpsoralen] showed a remaining activity at 3.75 µM ([1]; Well no.=3420) of 95.9% and a remaining activity at 1.25 µM ([2]; Well no.=3420) of 99.6%.

With `C=C[C@@](C)(/C=C/c1ccc(O)cc1)CCC=C(C)C` [Bakuchiol] the remaining activity at 3.75 µM ([1]; Well no.=3520) was 101%, the remaining activity at 3.75 µM ([1]; Well no.=4001) was 97.7% and the remaining activity at 1.25 µM ([2]; Well no.=4001) was 101%.

In the case of `Cn1cnc2c(NC3CCCC3)ncnc21` [N6-Cyclopentyl-9-methyladenine], the remaining activity at 3.75 µM ([1]; Well no.=988) is reported as 99.1% and the remaining activity at 1.25 µM ([2]; Well no.=988) is reported as 96.8%.

`C[C@@H](N)[C@H]1CC[C@H](C(=O)Nc2ccncc2)CC1` [ROCK Inhibitor, Y-27632] was tested, and the remaining activity at 3.75 µM ([1]; Well no.=2452) was 98.5% and the remaining activity at 1.25 µM ([2]; Well no.=2452) was 99.4%.

`Cc1ccc(S(=O)(=O)NC(=O)NN2CCCCCC2)cc1` [Tolazamide] showed a remaining activity at 3.75 µM ([1]; Well no.=1523) of 94.7%, a remaining activity at 3.75 µM ([1]; Well no.=1810) of 93.8% and a remaining activity at 1.25 µM ([2]; Well no.=1523) of 93.9%. The remaining activity at 1.25 µM ([2]; Well no.=1810) was 100%.

`CC1(C)C=Cc2c(ccc3c2OC[C@@H](c2ccc(O)cc2O)C3)O1` [4-[(3R)-8,8-dimethyl-3,4-dihydro-2H,8H-pyrano[2,3-f]chromen-3-yl]-1,3-benzenediol] was tested, and the remaining activity at 3.75 µM ([1]; Well no.=5793) was 104% and the remaining activity at 1.25 µM ([2]; Well no.=5793) was 100%.

`CN1CC(=O)NC1=O` [N-Methylhydantoin] gave a remaining activity at 3.75 µM ([1]; Well no.=6395) of 98.5% and a remaining activity at 1.25 µM ([2]; Well no.=6395) of 95.6%.

Molecule `CCCCCCCCCCCCCCC(=O)O` [Pentadecanoic acid] has a remaining activity at 3.75 µM ([1]; Well no.=4588) of 95.6%, a remaining activity at 3.75 µM ([1]; Well no.=7021) of 103% and a remaining activity at 1.25 µM ([2]; Well no.=4588) of 95%. It also gave a remaining activity at 1.25 µM ([2]; Well no.=7021) of 110%.

Molecule `COc1ccc(-c2cc(C(F)F)nn2-c2ccc(S(N)(=O)=O)cc2)cc1F` [Deracoxib] has a remaining activity at 3.75 µM ([1]; Well no.=7408) of 102% and a remaining activity at 1.25 µM ([2]; Well no.=7408) of 106%.

`OCc1c[nH]c2ccccc12` [Indole-3-carbinol] gave a remaining activity at 3.75 µM ([1]; Well no.=3524) of 102% and a remaining activity at 1.25 µM ([2]; Well no.=3524) of 102%.

`CC(C)(C)C(=O)C(=Nc1ccc(Cl)cc1)NNc1ccc(Cl)cc1` [TY-52156] gave a remaining activity at 3.75 µM ([1]; Well no.=7819) of 104% and a remaining activity at 1.25 µM ([2]; Well no.=7819) of 105%.

`COc1nccnc1NS(=O)(=O)c1cccc(Cl)c1Cl` [AZD2098] gave a remaining activity at 3.75 µM ([1]; Well no.=8225) of 98.6% and a remaining activity at 1.25 µM ([2]; Well no.=8225) of 102%.

Work on `Cc1c(-c2cnccn2)ssc1=S` [Oltipraz] yielded a remaining activity at 3.75 µM ([1]; Well no.=2049) of 112% and a remaining activity at 1.25 µM ([2]; Well no.=2049) of 109%.

`O=C(COc1ccc(C(=O)c2ccccc2)cc1)NC1CCN(Cc2ccccc2)CC1` [2-(4-benzoylphenoxy)-N-(1-benzyl-4-piperidinyl)acetamide] was tested, and the remaining activity at 3.75 µM ([1]; Well no.=5650) was 98.9% and the remaining activity at 1.25 µM ([2]; Well no.=5650) was 101%.
